Experiments:
Ki67 = Ki67 immunofluorescence in HaCaT cells; assay type: cell-based, human; settings: HG HaCaT cells; 5 μmol/L SF or 20 μmol/L CA
Protocol: Human immortalized keratinocytes HaCaT were obtained from the Arizona Cancer Center (see, e.g., Boukamp P, et al., J Cell Biol 106:761-771, 1988). Cells were grown in Dulbecco's modified Eagle's medium (DMEM) containing low glucose (LG, 5.5 mmol/L) and 10% fetal bovine serum (FBS) in an incubator at 37° C. with 5% CO2. For the experiments, the cells were starved in serum-free LG DMEM for 24 h, then either maintained in LG DMEM or switched to high glucose (HG, 25 mmol/L) DMEM for 2 days (see, e.g., Zheng H, et al., Diabetes 60:3055-3066, 2011; Lan C C, et al., Br J Dermatol 159:1103-1115, 2008). For the treatments, the cells were dosed with 5 μmol/L SF or 20 μmol/L CA.
siRNA transfections. […]
Reactive oxygen species (ROS) measurement, cell proliferation and apoptosis. ROS were measured in HaCaT cells using DCF. […] Then, 48 h later, the cells were switched into fresh medium containing 10 μg/mL DCF, incubated 30 min, and fluorescence intensity was measured by flow cytometry. The rate of cell proliferation was measured by two methods (see, e.g., Ren D, et al., Proc Natl Acad Sci USA 108:1433-1438, 2011): 1) detection of Ki67 using indirect immunofluorescence as described previously (see, e.g., Lau A, et al., Mol Cell Biol 30:3275-3285, 2010); and 2) using the xCELLigence system (Roche). […]

TGF-β1 = TGF-β1 expression in wound skin tissues of STZ mice (immunoblot, IHC); assay type: in vivo, mouse; settings: immunoblot and IHC, day 14
Source text: Diabetes mouse model and treatments. Nrf2^+/+ and Nrf2^-/- C57BL/6 mice were described previously (see, e.g., Jiang T, et al., Diabetes 59:850-860, 2010) and were housed and handled in accordance with the University of Arizona Institutional Animal Care policies. The STZ-induced diabetic model was previously described (see, e.g., Zheng H, et al., Diabetes 60:3055-3066, 2011) and only 8 week old male mice were included in this study. Briefly, three weeks after STZ injections, fasting glucose levels (FGL, 4 h fast) were measured using the AlphaTRAK system (Abbott Laboratory, North Chicago, Ill.) and mice with a FGL higher than or equal to 250 mg/dL were considered diabetic and included in the study (see, e.g., FIG. 2A and FIG. 3A for a detailed timeline). […] Gross wound closure was quantified by ImageJ software, and wound healing was expressed as the percentage of the original wound area that had healed. […] Morphology was assessed by hematoxylin and eosin (H&E) staining (Vector laboratory, Burlingame, Calif.). […] Protein concentration was measured using Quant-iT Protein Assay (Invitrogen) and 150 μg of protein were resolved by SDS-PAGE and immunoblotting analyses with the indicated antibodies.

Row | Compound | Ki67 expression (Ki67) | TGF-β1 expression (TGF-β1)
1 | O=CC=Cc1ccccc1 [CA, Cinnamaldehyde] | could restore some of the Ki67 expression | restored to levels comparable to that of Con mice
2 | C[S@@+]([O-])CCCCN=C=S [SF, L-sulforaphane] | could restore some of the Ki67 expression | restored to levels comparable to that of Con mice

Reference: patent US20180344680A1, “COMPOSITIONS AND METHODS FOR TREATMENT, AMELIORATION, AND PREVENTION OF DIABETES-RELATED SKIN ULCERS” (THE ARIZONA BOARD OF REGENTS ON BEHALF OF THE UNIVERSITY OF …, priority 2015, published 2018)
